Like-named read-outs stand apart in the source and are kept apart here. Peptide text beside a SMILES is read from it.
System: HCV pseudotype (HIV core proteins, HCV E1 and E2 of strain H77)
Settings: for Percent inhibition: 25 μM
[1] = HCV H77 1a E2 peptides at ~25 μM, Table 7, virus alone 448,123
[2] = HCV J4 1b E2 peptides at ~25 μM, Table 8, controls as in Table 7

| SMILES | Percent inhibition [%] | Luciferase units [1] | Luciferase units [2] |
| --- | --- | --- | --- |
| CC[C@H](C)[C@H](NC(=O)CNC(=O)[C@H](CS)NC(=O)[C@@H]1CCCN1C(=O)[C@H](CCCNC(=N)N)NC(=O)[C@@H]1CCCN1C(=O)[C@@H]1CCCN1C(=O)[C@H](Cc1ccc(O)cc1)NC(=O)[C@H](Cc1c[nH]cn1)NC(=O)[C@H](Cc1c[nH]c2ccccc12)NC(=O)[C@H](CS)NC(=O)[C@H](Cc1ccc(O)cc1)NC(=O)[C@@H]1CCCN1)C(=O)N[C@H](C(=O)N1CCC[C@H]1C(=O)N[C@@H](C)C(=O)N[C@@H](CCCCN)C(=O)N[C@@H](CO)C(=O)O)C(C)C [compound 15, PYCWHYPPRPCGIVPAKS] (H-PYCWHYPPRPCGIVPAKS-OH; N-terminus and C-terminus assumed) | 43.5 | 253,410 luciferase units (lumens) |  |
| CC[C@H](C)[C@H](NC(=O)CNC(=O)[C@H](CS)NC(=O)[C@@H]1CCCN1C(=O)[C@H](CCCNC(=N)N)NC(=O)[C@@H]1CCCN1)C(=O)N[C@H](C(=O)N1CCC[C@H]1C(=O)N[C@@H](C)C(=O)N[C@@H](CCCCN)C(=O)N[C@@H](CO)C(=O)N[C@H](C(=O)N[C@@H](CS)C(=O)NCC(=O)N1CCC[C@H]1C(=O)N[C@H](C(=O)N[C@@H](Cc1ccc(O)cc1)C(=O)N[C@@H](CS)C(=O)O)C(C)C)C(C)C)C(C)C [compound 16, PRPCGIVPAKSVCGPVYC] (H-PRPCGIVPAKSVCGPVYC-OH; N-terminus and C-terminus assumed) | 10.0 | 403,430 luciferase units (lumens) |  |
| CC(C)[C@H](NC(=O)[C@@H](NC(=O)[C@@H]1CCCN1C(=O)[C@H](CO)NC(=O)[C@@H]1CCCN1C(=O)[C@@H](NC(=O)[C@H](Cc1ccccc1)NC(=O)[C@H](CS)NC(=O)[C@H](Cc1ccc(O)cc1)NC(=O)[C@@H](NC(=O)[C@@H]1CCCN1C(=O)CNC(=O)[C@H](CS)NC(=O)[C@@H](NC(=O)[C@H](CO)NC(=O)[C@H](CCCCN)NC(=O)[C@H](C)NC(=O)[C@@H]1CCCN1)C(C)C)C(C)C)[C@@H](C)O)C(C)C)C(=O)O [compound 17, PAKSVCGPVYCFTPSPVV] (H-PAKSVCGPVYCFTPSPVV-OH; N-terminus and C-terminus assumed) | 43.2 | 254,516 luciferase units (lumens) |  |
| CC[C@H](C)[C@H](NC(=O)[C@@H](NC(=O)[C@H](CS)NC(=O)[C@@H]1CCCN1)C(C)C)C(=O)NCC(=O)NCC(=O)N[C@H](C(=O)NCC(=O)N[C@@H](CC(N)=O)C(=O)N[C@@H](CC(N)=O)C(=O)N[C@H](C(=O)N[C@@H](CC(C)C)C(=O)N[C@@H](CC(C)C)C(=O)N[C@@H](CS)C(=O)N1CCC[C@H]1C(=O)N[C@H](C(=O)N[C@@H](CC(=O)O)C(=O)N[C@@H](CS)C(=O)O)[C@@H](C)O)[C@@H](C)O)C(C)C [compound 26, PCVIGGVGNNTLLCPTDC] (H-PCVIGGVGNNTLLCPTDC-OH; N-terminus and C-terminus assumed) | 51.6 | 216,706 luciferase units (lumens) |  |
| CC[C@H](C)[C@H](NC(=O)[C@@H](NC(=O)[C@H](CC(C)C)NC(=O)[C@H](CC(N)=O)NC(=O)[C@H](CCC(=O)O)NC(=O)[C@H](CC(C)C)NC(=O)[C@H](C)NC(=O)[C@H](C)NC(=O)[C@H](CCC(=O)O)NC(=O)[C@H](C)NC(=O)[C@H](CCC(N)=O)NC(=O)[C@H](CO)NC(=O)[C@@H](NC(=O)[C@H](CC(C)C)NC(=O)[C@H](CC(C)C)NC(=O)[C@H](CCSC)NC(=O)[C@H](CCSC)NC(=O)[C@@H](N)Cc1c[nH]c2ccccc12)[C@@H](C)CC)C(C)C)C(=O)O [compound 50, WMMLLISQAEAALENLVI] | 87.9 | 58,790 luciferase units (lumens) |  |
| CC[C@H](C)[C@H](NC(=O)[C@H](Cc1c[nH]cn1)NC(=O)[C@H](Cc1c[nH]c2ccccc12)NC(=O)[C@H](CO)NC(=O)CNC(=O)[C@H](CC(N)=O)NC(=O)[C@@H](NC(=O)[C@H](CC(N)=O)NC(=O)[C@@H](NC(=O)[C@H](CC(C)C)NC(=O)[C@H](CCC(N)=O)NC(=O)[C@@H](NC(=O)[C@H](CCCCN)NC(=O)[C@H](CCC(N)=O)NC(=O)[C@H](CO)NC(=O)[C@H](C)N)[C@@H](C)CC)C(C)C)[C@@H](C)O)C(=O)N[C@@H](CC(N)=O)C(=O)N[C@@H](CCCNC(=N)N)C(=O)O [compound 83, ASQKIQLVNTNGSWHINR] | −15.8 |  | 518,993 luciferase units (lumens) |
| CC[C@H](C)[C@H](NC(=O)[C@@H](N)Cc1c[nH]cn1)C(=O)N[C@@H](CC(N)=O)C(=O)N[C@@H](CCCNC(=N)N)C(=O)N[C@H](C(=O)N[C@@H](C)C(=O)N[C@@H](CC(C)C)C(=O)N[C@@H](CC(N)=O)C(=O)N[C@@H](CS)C(=O)N[C@@H](CC(N)=O)C(=O)N[C@@H](CC(=O)O)C(=O)N[C@@H](CO)C(=O)N[C@@H](CC(C)C)C(=O)N[C@@H](CCC(N)=O)C(=O)N[C@H](C(=O)NCC(=O)N[C@@H](Cc1ccccc1)C(=O)N[C@@H](Cc1ccccc1)C(=O)O)[C@@H](C)O)[C@@H](C)O [compound 84, HINRTALNCNDSLQTGFF] | 12.5 |  | 392,023 luciferase units (lumens) |
| CC(C)C[C@H](NC(=O)[C@H](C)NC(=O)[C@H](C)NC(=O)[C@H](Cc1ccccc1)NC(=O)[C@H](Cc1ccccc1)NC(=O)CNC(=O)[C@@H](NC(=O)[C@H](CCC(N)=O)NC(=O)[C@H](CC(C)C)NC(=O)[C@H](CO)NC(=O)[C@H](CC(=O)O)NC(=O)[C@H](CC(N)=O)NC(=O)[C@H](CS)NC(=O)[C@@H](N)CC(N)=O)[C@@H](C)O)C(=O)N[C@@H](Cc1ccccc1)C(=O)N[C@@H](Cc1ccc(O)cc1)C(=O)N[C@@H](C)C(=O)N[C@@H](Cc1c[nH]cn1)C(=O)O [compound 85, NCNDSLQTGFFAALFYAH] | 74.9 |  | 112,260 luciferase units (lumens) |
| CC(C)[C@H](NC(=O)CNC(=O)[C@H](CS)NC(=O)[C@@H]1CCCN1C(=O)[C@H](CCCNC(=N)N)NC(=O)[C@@H]1CCCN1)C(=O)N[C@H](C(=O)N1CCC[C@H]1C(=O)N[C@@H](C)C(=O)N[C@@H](CO)C(=O)N[C@@H](CCC(N)=O)C(=O)N[C@H](C(=O)N[C@@H](CS)C(=O)NCC(=O)N1CCC[C@H]1C(=O)N[C@H](C(=O)N[C@@H](Cc1ccc(O)cc1)C(=O)N[C@@H](CS)C(=O)O)C(C)C)C(C)C)C(C)C [compound 92, PRPCGVVPASQVCGPVYC] (H-PRPCGVVPASQVCGPVYC-OH; N-terminus and C-terminus assumed) | 16.9 |  | 372,400 luciferase units (lumens) |
| CSCC[C@H](NC(=O)[C@@H](NC(=O)[C@H](CC(=O)O)NC(=O)[C@@H](NC(=O)[C@@H](N)CCC(=O)O)[C@@H](C)O)C(C)C)C(=O)N[C@@H](CC(C)C)C(=O)N[C@@H](CC(C)C)C(=O)N[C@@H](CC(N)=O)C(=O)N[C@@H](CC(N)=O)C(=O)N[C@H](C(=O)N[C@@H](CCCNC(=N)N)C(=O)N1CCC[C@H]1C(=O)N1CCC[C@H]1C(=O)N[C@@H](CCC(N)=O)C(=O)NCC(=O)N[C@@H](CC(N)=O)C(=O)N[C@@H](Cc1c[nH]c2ccccc12)C(=O)N[C@@H](Cc1ccccc1)C(=O)O)[C@@H](C)O [compound 98, ETDVMLLNNTRPPQGNWF] | −4.4 |  | 467,636 luciferase units (lumens) |
| CSCC[C@H](NC(=O)[C@H](Cc1c[nH]c2ccccc12)NC(=O)[C@@H](NC(=O)[C@H](CS)NC(=O)CNC(=O)[C@H](Cc1ccccc1)NC(=O)[C@H](Cc1c[nH]c2ccccc12)NC(=O)[C@H](CC(N)=O)NC(=O)CNC(=O)[C@H](CCC(N)=O)NC(=O)[C@@H]1CCCN1C(=O)[C@@H]1CCCN1C(=O)[C@H](CCCNC(=N)N)NC(=O)[C@@H](NC(=O)[C@H](CC(N)=O)NC(=O)[C@@H](N)CC(N)=O)[C@@H](C)O)[C@@H](C)O)C(=O)N[C@@H](CC(N)=O)C(=O)N[C@@H](CO)C(=O)O [compound 99, NNTRPPQGNWFGCTWMNS] | 75.2 |  | 111,043 luciferase units (lumens) |
| CC[C@H](C)[C@H](NC(=O)[C@H](CC(N)=O)NC(=O)[C@H](CS)NC(=O)[C@@H]1CCCN1)C(=O)NCC(=O)NCC(=O)N[C@H](C(=O)NCC(=O)N[C@@H](CC(N)=O)C(=O)N[C@@H](CCCNC(=N)N)C(=O)N[C@H](C(=O)N[C@@H](CC(C)C)C(=O)N[C@H](C(=O)N[C@@H](CS)C(=O)N1CCC[C@H]1C(=O)N[C@H](C(=O)N[C@@H](CC(=O)O)C(=O)N[C@@H](CS)C(=O)O)[C@@H](C)O)[C@@H](C)CC)[C@@H](C)O)C(C)C [compound 102, PCNIGGVGNRTLICPTDC] (H-PCNIGGVGNRTLICPTDC-OH; N-terminus and C-terminus assumed) | 15.8 |  | 377,216 luciferase units (lumens) |
| CSCC[C@H](N)C(=O)N[C@@H](Cc1ccc(O)cc1)C(=O)N[C@H](C(=O)NCC(=O)NCC(=O)N[C@H](C(=O)N[C@@H](CCC(=O)O)C(=O)N[C@@H](Cc1c[nH]cn1)C(=O)N[C@@H](CCCNC(=N)N)C(=O)N[C@@H](CC(C)C)C(=O)N[C@@H](CC(N)=O)C(=O)N[C@@H](C)C(=O)N[C@@H](C)C(=O)N[C@@H](CS)C(=O)N[C@@H](CC(N)=O)C(=O)N[C@@H](Cc1c[nH]c2ccccc12)C(=O)N[C@H](C(=O)N[C@@H](CCCNC(=N)N)C(=O)O)[C@@H](C)O)C(C)C)C(C)C [compound 110, MYVGGVEHRLNAACNWTR] | −34.5 |  | 602,506 luciferase units (lumens) |
| CC(C)C[C@H](NC(=O)[C@H](CCC(=O)O)NC(=O)[C@H](CO)NC(=O)[C@H](CCCNC(=N)N)NC(=O)[C@H](CC(=O)O)NC(=O)[C@H](CCCNC(=N)N)NC(=O)[C@H](CC(=O)O)NC(=O)[C@H](CCC(=O)O)NC(=O)[C@H](CC(C)C)NC(=O)[C@H](CC(N)=O)NC(=O)[C@H](CS)NC(=O)[C@H](CCCNC(=N)N)NC(=O)[C@H](CCC(=O)O)NC(=O)CNC(=O)[C@H](CCCNC(=N)N)NC(=O)[C@@H](NC(=O)[C@H](Cc1c[nH]c2ccccc12)NC(=O)[C@@H](N)CC(N)=O)[C@@H](C)O)C(=O)O [compound 112, NWTRGERCNLEDRDRSEL] | −17.8 |  | 527,950 luciferase units (lumens) |

Reference: patent US7381705B2, “Inhibitors of hepatitis C virus” (The Administrators Of The Tulane Educational Fund, priority 2004, dated 2008)
